Results taken from patent US12435320B2, “CRISPR having or associated with destabilization domains” (The Broad Institute, Inc., priority 2014, dated 2025).

How the values were obtained:
[1] = Double nicking indel formation with sgRNA pairs; assay type: cell-based; conditions: substitution of Cas9n with Cas9H840A with a given sgRNA pair; eukaryotic system
Description: Aspects of the invention relate to the expression of the gene product being decreased or a template polynucleotide being further introduced into the DNA molecule encoding the gene product or an intervening sequence being excised precisely by allowing the two 5′ overhangs to reanneal and ligate or the activity or function of the gene product being altered or the expression of the gene product being increased. In an embodiment of the invention, the gene product is a protein. Only sgRNA pairs creating 5′ overhangs with less than 8 bp overlap between the guide sequences (offset greater than −8 bp) were able to mediate detectable indel formation. […] Nonetheless, a pair of sgRNAs that will generate a 5′ overhang with Cas9n should in principle generate the corresponding 3′ overhang instead, and double nicking. […] Accordingly, in some embodiments, a recombination template is also provided. A recombination template may be a component of another vector as described herein, contained in a separate vector, or provided as a separate polynucleotide. In some embodiments, a recombination template is designed to serve as a template in homologous recombination, such as within or near a target sequence nicked or cleaved by a CRISPR enzyme as a part of a CRISPR complex. […]

[2] = test system: mammalian DHFR (DHFRts); conditions: addition to cells expressing DHFRts; cited from earlier work
[3] = test system: Mutants of human FKBP12; conditions: cited from earlier work
[4] = test system: Factor VII; conditions: LNP siRNA systems containing these lipids; hepatocytes in vivo; cited from earlier work
[5] = test system: human embryonic stem cells (hESCs); assay: Mutagenic NHEJ by Cas9-D10A nickase in human embryonic stem cells; assay type: cell-based
Description: The CRISPR enzyme is Cas9, and may be Cas9 from S. pyogenes or S. pneumoniae. In some embodiments, the CRISPR enzyme directs cleavage of one or both strands at the location of a target sequence, such as within the target sequence and/or within the complement of the target sequence. In some embodiments, the CRISPR enzyme directs cleavage of one or both strands within about 1, 2, 3, 4, 5, 6, 7, 8, 9, 10, 15, 20, 25, 50, 100, 200, 500, or more base pairs from the first or last nucleotide of a target sequence. In some embodiments, a vector encodes a CRISPR enzyme that is mutated to with respect to a corresponding wild-type enzyme such that the mutated CRISPR enzyme lacks the ability to cleave one or both strands of a target polynucleotide containing a target sequence. […] In some embodiments, a Cas9 nickase may be used in combination with guide sequenc(es), e.g., two guide sequences, which target respectively sense and antisense strands of the DNA target. This combination allows both strands to be nicked and used to induce NHEJ.

[6] = test system: EGFP gene; assay: U2OS.EGFP knockdown assay, loss of EGFP fluorescence, high-content automated microscope imaging; assay type: cell-based; conditions: ligand added to the DD-SpCas9-DD fusion protein and EGFP guide RNA
Description: The low throughput, flow cytometry-readout was replaced with a high-throughput readout using a high-content, automated microscope imaging. This assay can be run in a 96-well format and the data can be analyzed by a high-throughput image analysis platform, called ImageExpress.

[7] = test system: EGFP gene; assay: Decrease in EGFP positive cells in an EGFP-producing cell line treated with SpCas9-DD fusion protein and guide RNA; assay type: cell-based; conditions: DHFR-SpCas9-DHFR (DSPD); increasing dosages of TMP
[8] = test system: dystrophin; conditions: across 48 weeks; cited from earlier work

Cas9H840A: Cas9 with the H840A mutation
indel formation [1]: no indel formation is observed

CN(Cc1cnc2nc(N)nc(N)c2n1)c1ccc(C(=O)N[C@@H](CCC(=O)O)C(=O)O)cc1 [methotrexate]
degradation of DHFRts protein [2]: inhibited degradation of the protein partially

CC[C@H](C(=O)N1CCCC[C@H]1C(=O)O[C@H](CCc1ccc(OC)c(OC)c1)c1cccc(OCCN2CCOCC2)c1)c1cc(OC)c(OC)c(OC)c1 [Shield-1]
binding and stabilization of the DD [3]: bind to and stabilize the DD in a dose-dependent manner

CCCCC/C=C\C/C=C\CCCCCCCCOCC(CN(C)C)OCCCCCCCC/C=C\C/C=C\CCCCC (stereo not shown) [DLinDMA, 1,2-dilinoleyloxy-3-N,N-dimethylaminopropane]
gene silencing potency series [4]: DLinKC2-DMA>DLinKDMA>DLinDMA>>DLinDAP

CCCCC/C=C\C/C=C\CCCCCCCCC1(CCCCCCCC/C=C\C/C=C\CCCCC)OCC(CCN(C)C)O1 (stereo not shown) [DLinKC2-DMA, 1,2-dilinoleyl-4-(2-dimethylaminoethyl)-[1,3]-dioxolane]
gene silencing potency series [4]: DLinKC2-DMA>DLinKDMA>DLinDMA>>DLinDAP

Cas9-D10A: Cas9 nickase with the D10A mutation
efficiency relative to nuclease (regular Cas9 without D10 mutation) ([5]; double nickase, two sgRNAs targeted to different strands at the same location, hESCs): about 50%
induction of NHEJ and indels ([5]; single nickase, with a single sgRNA): unable to induce NHEJ and create indels

1,2-dilinoleyloxy-keto-N,N-dimethyl-3-aminopropane [DLinKDMA]
gene silencing potency series [4]: DLinKC2-DMA>DLinKDMA>DLinDMA>>DLinDAP

COc1cc(Cc2cnc(N)nc2N)cc(OC)c1OC [TMP, trimethoprim]
Effect of added DD ligand on the fusion protein's reduction of EGFP fluorescence [6]: increased the effect of the DSPD fusion protein in a dose-dependent manner
effect of ligand addition on the effect of the SpCas9-DD fusion protein [7]: increased the effect of the SpCas9-DD fusion protein in a dose-dependent manner

CCCCC/C=C\C/C=C\CCCCCCCC(=O)OCC(CN(C)C)OC(=O)CCCCCCC/C=C\C/C=C\CCCCC (stereo not shown) [DLinDAP, 1,2-dilineoyl-3-dimethylammonium-propane]
gene silencing potency series [4]: DLinKC2-DMA>DLinKDMA>DLinDMA>>DLinDAP

eteplirsen
Dystrophin positive fibers compared to baseline, average [8]: 47%
Functional benefit [8]: significant functional benefit
